Data published in ChEMBL document CHEMBL5344441, “Discovery and Preclinical Pharmacology of NX-2127, an Orally Bioavailable Degrader of Bruton's Tyrosine Kinase with Immunomodulatory Activity for the Treatment of Patients with B Cell Malignancies” (J Med Chem, 2024).
≈ marks a conversion by molar mass, not a printed value. Calls of active or inactive are those of the source. The rule behind the calls is not given here.

Experiments:
[1] = biological target: T1, Protein cereblon/Tyrosine-protein kinase BTK (Homo sapiens, UniProt Q06187+Q96SW2); experiment: PROTAC activity at CRBN/BTK in human Ramos cells assessed as degradation of BTK protein incubated for 4 hrs by HTRF assay; type: cell-based
Target sequence in this assay (Q06187 whole entry): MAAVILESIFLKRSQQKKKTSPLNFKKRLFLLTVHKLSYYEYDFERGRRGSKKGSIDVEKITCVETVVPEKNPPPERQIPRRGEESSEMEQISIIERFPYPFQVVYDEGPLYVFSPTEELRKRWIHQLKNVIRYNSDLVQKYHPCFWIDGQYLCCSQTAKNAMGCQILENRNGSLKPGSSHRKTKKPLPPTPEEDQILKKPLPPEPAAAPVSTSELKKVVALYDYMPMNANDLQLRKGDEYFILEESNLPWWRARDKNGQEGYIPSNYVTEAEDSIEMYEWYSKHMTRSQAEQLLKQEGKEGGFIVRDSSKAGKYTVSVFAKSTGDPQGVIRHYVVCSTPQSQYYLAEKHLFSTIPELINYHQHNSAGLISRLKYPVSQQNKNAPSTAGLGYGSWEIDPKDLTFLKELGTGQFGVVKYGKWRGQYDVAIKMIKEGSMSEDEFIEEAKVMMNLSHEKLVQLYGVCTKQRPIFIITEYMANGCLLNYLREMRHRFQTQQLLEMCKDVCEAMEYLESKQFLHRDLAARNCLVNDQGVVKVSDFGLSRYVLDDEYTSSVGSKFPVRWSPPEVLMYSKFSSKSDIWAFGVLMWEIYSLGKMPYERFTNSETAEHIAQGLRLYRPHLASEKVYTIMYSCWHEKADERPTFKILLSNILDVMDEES
Target sequence in this assay (Q96SW2 whole entry): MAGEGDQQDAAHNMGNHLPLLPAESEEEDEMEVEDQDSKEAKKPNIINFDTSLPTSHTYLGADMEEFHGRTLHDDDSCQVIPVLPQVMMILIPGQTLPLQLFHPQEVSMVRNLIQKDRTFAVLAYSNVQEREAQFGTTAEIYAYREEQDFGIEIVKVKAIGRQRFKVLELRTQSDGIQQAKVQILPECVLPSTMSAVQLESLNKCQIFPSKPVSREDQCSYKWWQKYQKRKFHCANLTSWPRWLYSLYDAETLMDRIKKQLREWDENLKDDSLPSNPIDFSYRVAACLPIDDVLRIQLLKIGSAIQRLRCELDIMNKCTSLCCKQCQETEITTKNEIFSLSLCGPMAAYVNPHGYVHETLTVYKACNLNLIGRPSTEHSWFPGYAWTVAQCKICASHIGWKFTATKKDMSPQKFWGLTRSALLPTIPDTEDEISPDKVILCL

[2] = biological target: T1, Protein cereblon/Tyrosine-protein kinase BTK; experiment: PROTAC activity at CRBN/BTK in human Ramos cells assessed as maximal degradation of BTK protein incubated for 4 hrs by HTRF assay relative to control; type: cell-based
Target sequence in this assay (Q06187 2-659 limits assumed): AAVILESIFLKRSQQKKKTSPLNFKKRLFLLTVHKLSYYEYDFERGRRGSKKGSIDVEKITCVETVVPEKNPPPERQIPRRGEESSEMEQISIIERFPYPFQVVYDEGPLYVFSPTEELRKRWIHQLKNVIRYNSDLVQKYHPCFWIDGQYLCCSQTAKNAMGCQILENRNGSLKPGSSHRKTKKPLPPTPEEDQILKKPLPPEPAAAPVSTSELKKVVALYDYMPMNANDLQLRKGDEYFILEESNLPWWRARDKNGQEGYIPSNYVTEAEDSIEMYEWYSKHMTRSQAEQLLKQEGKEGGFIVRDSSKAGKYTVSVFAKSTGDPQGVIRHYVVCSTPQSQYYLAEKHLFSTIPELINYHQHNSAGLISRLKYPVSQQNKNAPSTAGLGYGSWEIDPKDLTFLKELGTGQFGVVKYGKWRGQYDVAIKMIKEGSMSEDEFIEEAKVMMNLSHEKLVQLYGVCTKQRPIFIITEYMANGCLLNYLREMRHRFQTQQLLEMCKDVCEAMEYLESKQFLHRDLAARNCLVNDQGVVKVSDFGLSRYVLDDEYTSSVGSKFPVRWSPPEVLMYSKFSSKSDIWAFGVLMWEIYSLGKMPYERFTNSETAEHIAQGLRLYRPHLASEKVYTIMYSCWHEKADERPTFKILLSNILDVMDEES
Target sequence in this assay (Q96SW2 whole entry partner): as the sequence (Q96SW2 whole entry) above

[3] = biological target: T1, Protein cereblon/Tyrosine-protein kinase BTK; experiment: PROTAC activity at CRBN/BTK in human TMD8 cells assessed as degradation of BTK protein incubated for 4 hrs by HTRF assay; type: cell-based
Target sequence in this assay (Q06187 whole entry): as the sequence (Q06187 whole entry) above
Target sequence in this assay (Q96SW2 whole entry): as the sequence (Q96SW2 whole entry) above

[4] = biological target: T1, Protein cereblon/Tyrosine-protein kinase BTK; experiment: PROTAC activity at CRBN/BTK in human TMD8 cells assessed as maximal degradation of BTK protein incubated for 4 hrs by HTRF assay relative to control; type: cell-based
Target sequence in this assay (Q06187 2-659 limits assumed): as the sequence (Q06187 2-659 limits assumed) above
Target sequence in this assay (Q96SW2 whole entry partner): as the sequence (Q96SW2 whole entry) above

[5] = biological target: T2, Protein cereblon/Zinc finger protein Aiolos (Homo sapiens, UniProt Q96SW2+Q9UKT9); experiment: PROTAC activity at CRBN/IKZF3 in human T cell assessed as degradation of IKZF3 protein incubated for 24 hrs by flow cytometry; type: cell-based
Target sequence in this assay (Q96SW2 whole entry): as above
Target sequence in this assay (Q9UKT9 whole entry): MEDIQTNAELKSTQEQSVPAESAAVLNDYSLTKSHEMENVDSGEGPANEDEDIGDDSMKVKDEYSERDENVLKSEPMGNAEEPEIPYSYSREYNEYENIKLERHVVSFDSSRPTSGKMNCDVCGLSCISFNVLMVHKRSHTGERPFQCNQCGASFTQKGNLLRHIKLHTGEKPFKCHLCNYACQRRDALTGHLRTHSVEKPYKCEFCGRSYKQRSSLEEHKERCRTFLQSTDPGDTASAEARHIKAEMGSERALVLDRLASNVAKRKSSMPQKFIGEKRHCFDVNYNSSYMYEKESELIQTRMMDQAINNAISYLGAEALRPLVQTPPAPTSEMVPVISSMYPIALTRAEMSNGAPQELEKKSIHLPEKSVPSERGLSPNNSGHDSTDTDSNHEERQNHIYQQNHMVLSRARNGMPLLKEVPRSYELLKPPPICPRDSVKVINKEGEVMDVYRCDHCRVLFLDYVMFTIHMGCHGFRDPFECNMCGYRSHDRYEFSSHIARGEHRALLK

[6] = biological target: T2, Protein cereblon/Zinc finger protein Aiolos; experiment: PROTAC activity at CRBN/IKZF3 in human T cell assessed as maximal degradation of IKZF3 protein incubated for 24 hrs by flow cytometry relative to control; type: cell-based
Target sequence in this assay (Q96SW2 whole entry, looked up): as the sequence (Q96SW2 whole entry) above
Target sequence in this assay (Q9UKT9 whole entry, looked up): as the sequence (Q9UKT9 whole entry) above

[7] = biological target: T3, Protein cereblon/Tyrosine-protein kinase BTK (Mus musculus) (UniProt P35991+Q8C7D2); experiment: In vivo protac activity at CRBN/BTK in BALB/c mouse assessed as remaining BTK protein in blood at 3 mg/kg,po administration measured after 6 hrs by flow cytomtery relative to control; type: functional, organism-based
T3 sequence (P35991 whole entry, looked up): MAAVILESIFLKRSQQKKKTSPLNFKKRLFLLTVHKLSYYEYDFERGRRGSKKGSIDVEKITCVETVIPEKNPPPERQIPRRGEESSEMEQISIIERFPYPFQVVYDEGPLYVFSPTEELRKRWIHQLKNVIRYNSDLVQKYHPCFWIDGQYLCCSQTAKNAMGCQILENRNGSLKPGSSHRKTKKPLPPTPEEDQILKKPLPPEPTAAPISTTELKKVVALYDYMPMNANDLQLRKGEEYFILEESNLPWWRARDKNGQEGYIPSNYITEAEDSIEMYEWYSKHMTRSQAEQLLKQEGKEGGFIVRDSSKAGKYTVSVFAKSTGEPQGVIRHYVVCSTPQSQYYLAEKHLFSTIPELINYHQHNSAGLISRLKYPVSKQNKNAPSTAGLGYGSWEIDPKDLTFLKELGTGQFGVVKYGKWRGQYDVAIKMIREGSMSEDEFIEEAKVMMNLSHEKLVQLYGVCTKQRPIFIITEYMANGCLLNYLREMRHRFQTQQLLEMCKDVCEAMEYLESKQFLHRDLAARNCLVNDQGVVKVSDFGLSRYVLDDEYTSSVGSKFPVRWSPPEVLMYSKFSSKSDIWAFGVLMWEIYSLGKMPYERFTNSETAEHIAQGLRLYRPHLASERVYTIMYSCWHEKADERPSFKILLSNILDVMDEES
T3 sequence (Q8C7D2 whole entry, looked up): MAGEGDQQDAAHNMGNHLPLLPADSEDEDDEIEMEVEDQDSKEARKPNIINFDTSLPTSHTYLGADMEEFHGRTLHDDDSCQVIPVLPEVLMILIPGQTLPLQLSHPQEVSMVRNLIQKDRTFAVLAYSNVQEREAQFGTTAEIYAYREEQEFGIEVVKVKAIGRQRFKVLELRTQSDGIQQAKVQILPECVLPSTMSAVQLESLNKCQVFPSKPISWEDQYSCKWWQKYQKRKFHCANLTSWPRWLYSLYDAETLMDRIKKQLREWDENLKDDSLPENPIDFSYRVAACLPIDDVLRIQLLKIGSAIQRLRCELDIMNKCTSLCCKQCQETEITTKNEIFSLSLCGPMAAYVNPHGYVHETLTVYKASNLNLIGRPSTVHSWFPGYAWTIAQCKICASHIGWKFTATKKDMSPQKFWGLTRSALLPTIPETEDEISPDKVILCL

TMD8 [8] = experiment: Antitumor activity against human TMD8 cells expressing wild type BTK xenografted in CB17-SCID mouse assessed as tumor growth inhibition at 30 mg/kg,po administration for 25 days; type: functional; details: TMD8, 600 h, time 25 day, read-out: TGI
TMD8 [9] = experiment: Antitumor activity against human TMD8 cells expressing BTK C481S mutant xenografted in CB17-SCID mouse assessed as tumor growth inhibition at 30 mg/kg,po administration for 25 days; type: functional; details: time 25.0 day
[10] = biological target: T3, Protein cereblon/Tyrosine-protein kinase BTK (Mus musculus); experiment: In vivo protac activity at CRBN/BTK in BALB/c mouse assessed as remaining BTK protein in splenocyte at 3 mg/kg,po administration measured after 6 hrs by HTRF assay relative to control; type: functional, organism-based
[11] = Lipophilicity, logD of compound at pH 7.4; type: physicochemical; details: buffer
[12] = biological target: Protein cereblon/Tyrosine-protein kinase BTK (Homo sapiens, UniProt Q06187+Q96SW2, C481S); experiment: PROTAC activity at CRBN/BTK C481S mutant in human TMD8 cells assessed as degradation of BTK protein incubated for 4 hrs by HTRF assay; type: cell-based
Sequence of Protein cereblon/Tyrosine-protein kinase BTK (Homo sapiens, UniProt Q06187+Q96SW2, C481S) (Q06187 2-659 C481S limits assumed, stated change not applied): as the sequence (Q06187 2-659 limits assumed) above, with C480S counted along it
Sequence of Protein cereblon/Tyrosine-protein kinase BTK (Homo sapiens, UniProt Q06187+Q96SW2, C481S) (Q96SW2 whole entry, stated change not applied): as the sequence (Q96SW2 whole entry) above

Cereblon/Ikaros = Cereblon/Ikaros (Homo sapiens, UniProt Q96SW2+Q13422); experiment: PROTAC activity at CRBN/IKZF1 in human T cell assessed as degradation of IKZF1 protein incubated for 24 hrs by flow cytometry; type: cell-based
Sequence of Cereblon/Ikaros (Q96SW2 whole entry): as above
Sequence of Cereblon/Ikaros (Q13422 whole entry): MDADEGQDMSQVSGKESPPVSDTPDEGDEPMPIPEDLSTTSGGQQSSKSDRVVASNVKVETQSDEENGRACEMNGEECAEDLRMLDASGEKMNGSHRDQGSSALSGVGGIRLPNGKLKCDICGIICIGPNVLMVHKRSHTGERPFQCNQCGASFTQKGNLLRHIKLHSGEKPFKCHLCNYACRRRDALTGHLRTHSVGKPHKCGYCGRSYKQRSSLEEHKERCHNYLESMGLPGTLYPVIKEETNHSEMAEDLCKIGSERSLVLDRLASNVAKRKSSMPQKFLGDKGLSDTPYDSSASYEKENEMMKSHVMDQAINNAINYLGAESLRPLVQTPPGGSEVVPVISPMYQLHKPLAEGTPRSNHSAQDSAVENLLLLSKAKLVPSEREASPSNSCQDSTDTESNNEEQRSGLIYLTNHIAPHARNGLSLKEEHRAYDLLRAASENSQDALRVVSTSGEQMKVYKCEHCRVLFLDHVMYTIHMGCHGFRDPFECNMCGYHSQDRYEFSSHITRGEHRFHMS

[13] = Aqueous solubility of the compound in PBS at pH 7.4; type: physicochemical
[14] = Efflux ratio of apparent permeability in human Caco-2 cells; type: ADME, cell-based
[15] = Apparent permeability across apical to basolateral side in human Caco-2 cells; type: ADME, cell-based
[16] = Plasma protein binding in mouse; type: ADME, cell-free; details: read-out: PPB
[17] = Plasma protein binding in rat; type: ADME, cell-free; details: read-out: PPB
[18] = Plasma protein binding in dog; type: ADME, cell-free, Canis lupus familiaris; details: read-out: PPB (converted)
[19] = Plasma protein binding in cynomolgus monkey; type: ADME, cell-free, Macaca fascicularis; details: read-out: PPB (converted)
[20] = Plasma protein binding in human; type: ADME, cell-free; details: read-out: PPB (converted)
[21] = Ratio of drug concentration in mouse blood to plasma; type: ADME, cell-free; details: whole blood
[22] = Ratio of drug concentration in rat blood to plasma; type: ADME, cell-free; details: whole blood
[23] = Ratio of drug concentration in dog blood to plasma; type: ADME, cell-free, Canis lupus familiaris; details: whole blood
[24] = Ratio of drug concentration in cynomolgus monkey blood to plasma; type: ADME, cell-free, Macaca fascicularis; details: whole blood
[25] = Ratio of drug concentration in human blood to plasma; type: ADME, cell-free; details: whole blood
[26] = Observed clearance in mouse at 1 mg/kg,iv; type: ADME, organism-based; details: in vivo
[27] = AUC in mouse at 10 mg/kg,po; type: ADME, organism-based; design: dose 10 mg/kg, route po; details: in vivo
[28] = Oral bioavailability in mouse at 10 mg/kg; type: ADME, organism-based; details: in vivo
[29] = test system: Protein cereblon/Tyrosine-protein kinase BTK (Homo sapiens), Q06187+Q96SW2 [C481S]; experiment: PROTAC activity at CRBN/BTK C481S mutant in human TMD8 cells assessed as maximal degradation of BTK protein incubated for 4 hrs by HTRF assay relative to control; type: cell-based

CN1CCN([C@@H]2CCCN(c3cnc(C(N)=O)c(Nc4ccc(C5CCN(C6CN(c7ccc8c(c7)C(=O)N(C7CCC(=O)NC7=O)C8=O)C6)CC5)cc4)n3)C2)C1=O (stereo partly drawn)
DC50 [1]: 1.4 nM
Emax [2]: 91%
DC50 [3]: 1.2 nM
Emax [4]: 96%
DC50 [5]: 32 nM
Emax [6]: 74%
Activity [7]: 35%

CN1CCN([C@@H]2CCCN(c3cnc(C(N)=O)c(Nc4ccc(C5CCN(C[C@H]6CCN(c7ccc8c(c7)CN(C7CCC(=O)NC7=O)C8=O)C6)CC5)cc4)n3)C2)C1=O (stereo partly drawn)
DC50 [3]: 0.25 nM
Emax [4]: 96%
Activity [7]: 49%

CN1CCN([C@@H]2CCCN(c3cnc(C(N)=O)c(Nc4ccc(C5CCN(CC6CN(c7ccc8c(c7)C(=O)N(C7CCC(=O)NC7=O)C8=O)C6)CC5)cc4)n3)C2)C1=O (stereo partly drawn)
DC50 [1]: 0.8 nM
Emax [2]: 97%

CN1CCN([C@@H]2CCCN(c3cnc(C(N)=O)c(Nc4ccc(N5CCC6(CC5)CN(c5cccc7c5C(=O)N(C5CCC(=O)NC5=O)C7=O)C6)cc4)n3)C2)C1=O (stereo partly drawn)
Emax [4]: 50%

C=CC(=O)N1CCC[C@@H](n2nc(-c3ccc(Oc4ccccc4)cc3)c3c(N)ncnc32)C1 [IBRUTINIB]
inhibition in vivo at 30 mg/kg (TMD8 [8]): 55%
Activity (TMD8 [9]): inactive

CN1CCN([C@@H]2CCCN(c3cnc(C(N)=O)c(Nc4ccc(C5CCN(CCCNc6cccc7c6C(=O)N(C6CCC(=O)NC6=O)C7=O)CC5)cc4)n3)C2)C1=O (stereo partly drawn)
DC50 [1]: 2.4 nM
Emax [2]: 95%
DC50 [5]: 11 nM
Emax [6]: 87%

NC(=O)c1ncc(-c2nccs2)nc1Nc1ccc(C2CCN(C[C@H]3CCN(c4ccc5c(c4)C(=O)N(C4CCC(=O)NC4=O)C5=O)C3)CC2)cc1 (stereo partly drawn)
DC50 [3]: 1.7 nM
Emax [4]: 95%
Activity [7]: 24%

CN1CCN([C@@H]2CCCN(c3cnc(C(N)=O)c(Nc4ccc5c(c4)CCN(CC4CCN(c6ccc7c(c6)C(=O)N(C6CCC(=O)NC6=O)C7=O)CC4)C5)n3)C2)C1=O (stereo partly drawn)
DC50 [1]: 2.4 nM
Emax [2]: 95%
DC50 [3]: 1.2 nM
Emax [4]: 96%
DC50 [5]: 14 nM
Emax [6]: 86%
Activity [7]: 68%

CN1CCN([C@@H]2CCCN(c3cnc(C(N)=O)c(Nc4ccc(N5CCC6(CCN(c7ccc8c(c7)C(=O)N(C7CCC(=O)NC7=O)C8=O)CC6)CC5)nc4)n3)C2)C1=O (stereo partly drawn)
DC50 [3]: 4.3 nM
Emax [4]: 94%
Activity [7]: 96%

Cc1[nH]c2c(C(N)=O)ccc(N3CCC[C@H](NC(=O)CCCCCCc4cccc5c4CN(C4CCC(=O)NC4=O)C5=O)C3)c2c1C (stereo partly drawn)
DC50 [1]: > 10000 nM
Emax [2]: < 20%

CN1CCN([C@@H]2CCCN(c3cnc(C(N)=O)c(Nc4ccc(C5CCN(C[C@H]6CCN(c7ccc8c(c7)C(=O)N(C7CCC(=O)NC7=O)C8=O)C6)CC5)cc4)n3)C2)C1=O (stereo partly drawn)
DC50 [1]: 0.5 nM
Emax [2]: 97%
DC50 [3]: 0.35 nM
Emax [4]: 97%
Emax [6]: 79%
Activity [10]: 32%
Activity [7]: 50%
logD [11]: 3.7
DC50 [12]: 1.5 nM
DC50 (Cereblon/Ikaros): 57 nM
solubility [13]: 0.3 µM (≈ 0.245 µg/mL)
efflux ratio [14]: > 84
Papp A→B [15]: < 0.1 nm/s
fraction unbound [16]: < 0.015
fraction unbound [17]: < 0.015
fraction unbound [18]: 0.031
fraction unbound [19]: 0.025
fraction unbound [20]: 0.066
blood plasma ratio [21]: 1.1
blood plasma ratio [22]: 1.3
blood plasma ratio [23]: 6
blood plasma ratio [24]: 11
blood plasma ratio [25]: 0.3
clearance [26]: 0.18 L/h/kg
AUC [27]: 3.6 µM·h
bioavailability [28]: 5.4%
Emax [29]: 94.8%

Cc1cccc(C[C@@H](NC(=O)c2ccc3[nH]ncc3c2)C(=O)N2Cc3[nH]c4ccccc4c3C[C@@H]2C(=O)NCCOCCOCCOCCOCCOCCOCCOCCNc2cccc3c2C(=O)N(C2CCC(=O)NC2=O)C3=O)c1 (stereo partly drawn)
DC50 [1]: 2880 nM
Emax [2]: 51%

C[C@H]1CN(C(=O)CCOCCCc2cccc3c2CN(C2CCC(=O)NC2=O)C3=O)CCN1c1ccc(Nc2cc(-c3ccnc(N4CCn5c(cc6c5CC(C)(C)C6)C4=O)c3CO)cn(C)c2=O)nc1 (stereo partly drawn)
DC50 [1]: 7.2 nM
Emax [2]: 88%

CN1CCN([C@@H]2CCCN(c3cnc(C(N)=O)c(Nc4ccc(C5CCN(C[C@H]6CCN(c7ccc8c(c7)C(=O)N(C7CCC(=O)NC7=O)C8=O)C6)CC5)nc4)n3)C2)C1=O (stereo partly drawn)
DC50 [3]: 1 nM
Emax [4]: 96%
Activity [10]: 46%
